Series [1] relates to Male rats. The series is described as follows: Diuretic and natriuretic test in anesthetized rats, urine collected before and 5 minutes after jugular vein injection (Table 2). The class given is in vivo, rat. As to conditions: furosemide 1.21 μmole (group IV). As to the method: To keep the respiratory tract open, a tracheal cannula (PE-240 Clay-Adams) was inserted into the trachea. An arterial cannula (PE-50) was inserted into a femoral artery for measurement of the blood pressure, and a venous cannula was inserted into a femoral vein for the administration of Ringer's solution.
The collection of urine was carried out for 30 minutes before administration of the test compound, and every five minutes after the administration.
The control group (group I) was administered 50 μl of physiological saline containing only bacitracin.

The subject of series [2] is Male rats. The series is described as follows: Another test: relative amounts of urine, Na+, K+, Cl- for 30 minutes before and after administration (Table 3). Format: in vivo, rat. As to conditions: Furosemide 0.3 μmol.
Method: Male rats weighing 300 to 400 grams were anesthetized by intraperitoneal administration of pentobarbital at a dosage of 60 mg/kg, and used for tests of the β-rANP according to the method described in Life Sciences, Vol. 28, pp 89-94.
To keep the respiratory tract open, a tracheal cannula (PE-240 Clay-Adams) was inserted into the trachea. An arterial cannula (PE-50) was inserted into a femoral artery for measurement of the blood pressure, and a venous cannula was inserted into a femoral vein for the administration of Ringer's solution. 1.2 ml of Ringer's solution was infused at a flow rate of 1.2 ml/hour.
A bladder cannula made of silastic tube with a inner diameter of 0.02 inches and an outer diameter of 0.037 inches was inserted into the bladder, and via the cannula, a urine sample was collected into a test tube. The collection of urine was carried out for 30 minutes before administration of the test compound, and every five minutes after the administration.
A predetermined amount of the test compound β-rANP was dissolved in 50 μl of sterilized physiological saline with 5 μg of bacitracin, and the solution was injected into the jugular vein.
A further series can be described thus: Solubility in solvents. Format: physicochemical. The text has this: (6) Solubility in solvents: soluble in water, partially in methanol, and acetic acid; insoluble in ethyl acetate, butyl acetate, ethyl ether, hexane, petroleum ether, benzene, and chloroform.
Series [3] is described as follows: Repeated administration: antibody production, anaphylaxis shock, toxicity. The class given is in vivo.

Bridge positions count the residues as written; N and C are the ends. Ends that are not written are not given here.

On to `NS(=O)(=O)c1cc(C(=O)O)c(NCc2ccco2)cc1Cl` [Furosemide, furosemide], for which the “Urine volume A” value in the series on Male rats [1] (A: sample collected 5 minutes after administration) amounted to 167 ± 28 µL/min. Further, the “Urine volume B” value in the series on Male rats [1] (B: sample collected 30 minutes before administration) stood at 8.6 ± 1.9 µL/min. For the same compound, the “Urine volume, percentage after relating to before” value in the series on Male rats [2] is 497 ± 165%.

As for “PSDRSALLKSKLRALLAGPRSLRRSSCFGGRIDRIGAQSGLGCNSFRY (disulfide 27-43) [β-rANP, β-rat atrial natriuretic polypeptide]”, the Solubility in solvents result was “insoluble” in the series “Solubility in solvents” (ethyl acetate, butyl acetate, ethyl ether, hexane, petroleum ether, benzene, and chloroform); “partially” in the series “Solubility in solvents” (methanol, and acetic acid); “soluble” in the series “Solubility in solvents” (water). Further, the toxicity result in series [3] (in vivo) is “little toxicity”. The anaphylaxis shock entry in series [3] (repeated administration) is “does not cause”. In addition, the production of antibodies entry in series [3] (repeated administration) was “does not stimulate”.

These data come from patent US4657891A, “Diuretic peptide, and production and use thereof” (Suntory Limited, priority 1984, dated 1987).
